Patent US20130212744A1, “METHOD OF REDUCING INSECT-VECTORED VIRAL INFECTIONS” (priority 2010, published 2013)

Tested on: whitefly Bemisia tabaci nymphs
Experiment: Soil use (drench) field trial on tomato, efficacy on whitefly nymphs
Type: in vivo
Conditions: for Emax at 100 g/ha: 100 g ai/ha; for Emax at 150 g/ha: 150 g ai/ha; for Emax at 12.5 g/ha: 12.5 g ai/ha; for Emax at 25 g/ha: 25 g ai/ha
Method: Two soil applied studies were carried out in Elhasanya, Egypt in 2009 on tomato plants with the main goal to measure efficacy on the whitefly Bemisia tabaci. The plot size was 4.8 m^2 and 6 replicates were used in the trial. […] The spray volume was at the first application 350 l/ha. The evaluation of this study was done counting the adult whiteflies (Bemisia tabaci) as well as the nymphs and the eggs in each plot. In addition to the direct whitefly effect, visual symptoms of the virus, mainly TYLCV (tomato yellow leaf curl virus) were evaluated also.

CNC(=O)c1cc(C#N)cc(C)c1NC(=O)c1cc(Br)nn1-c1ncccc1Cl [CYNT, 3-bromo-1-(3-chloro-2-pyridyl)-4′-cyano-2′-methyl-6′-(methylcarbamoyl)pyrazole-5-carboxanilide]
Emax at 100 g/ha (25DAA1, Trial 2): 60% | Emax at 100 g/ha (30DAA1, Trial 2): 34% | Emax at 100 g/ha (35DAA1, Trial 2): 63% | Emax at 100 g/ha (40DAA2, Trial 2): 52% | Emax at 150 g/ha (25DAA1, Trial 2): 78% | Emax at 150 g/ha (30DAA1, Trial 2): 79% | Emax at 150 g/ha (35DAA1, Trial 2): 77% | Emax at 150 g/ha (40DAA2, Trial 2): 61% | Emax at 100 g/ha (240 h, 10DAA, Trial 1): 67% | Emax at 150 g/ha (240 h, 10DAA, Trial 1): 69% | Emax at 100 g/ha (360 h, 15DAA, Trial 1): 65% | Emax at 150 g/ha (360 h, 15DAA, Trial 1): 84% | Emax at 100 g/ha (480 h, 20DAA, Trial 1): 59% | Emax at 150 g/ha (480 h, 20DAA, Trial 1): 84% | Emax at 100 g/ha (600 h, 25DAA, Trial 1): 39% | Emax at 150 g/ha (600 h, 25DAA, Trial 1): 77% | Emax at 100 g/ha (720 h, 30DAA, Trial 1): 28% | Emax at 150 g/ha (720 h, 30DAA, Trial 1): 74% | Emax at 100 g/ha (840 h, 35DAA, Trial 1): 24% | Emax at 150 g/ha (840 h, 35DAA, Trial 1): 70% | Emax at 100 g/ha (960 h, 40DAA, Trial 1): 13% | Emax at 150 g/ha (960 h, 40DAA, Trial 1): 64%

CSC(=O)c1cccc2nnsc12 [ASM, S-methyl benzo[1,2,3]thiadiazole-7-carbothioate]
Emax at 12.5 g/ha (25DAA1, Trial 2): 29% | Emax at 12.5 g/ha (30DAA1, Trial 2): 39% | Emax at 12.5 g/ha (35DAA1, Trial 2): 22% | Emax at 12.5 g/ha (40DAA2, Trial 2): 11% | Emax at 25 g/ha (25DAA1, Trial 2): 69% | Emax at 25 g/ha (30DAA1, Trial 2): 43% | Emax at 25 g/ha (35DAA1, Trial 2): 14% | Emax at 25 g/ha (40DAA2, Trial 2): 6% | Emax at 12.5 g/ha (240 h, 10DAA, Trial 1): 47% | Emax at 25 g/ha (240 h, 10DAA, Trial 1): 50% | Emax at 12.5 g/ha (360 h, 15DAA, Trial 1): 21% | Emax at 25 g/ha (360 h, 15DAA, Trial 1): 47% | Emax at 12.5 g/ha (480 h, 20DAA, Trial 1): 31% | Emax at 25 g/ha (480 h, 20DAA, Trial 1): 54% | Emax at 12.5 g/ha (600 h, 25DAA, Trial 1): 60% | Emax at 25 g/ha (600 h, 25DAA, Trial 1): 50% | Emax at 12.5 g/ha (720 h, 30DAA, Trial 1): 47% | Emax at 25 g/ha (720 h, 30DAA, Trial 1): 49% | Emax at 12.5 g/ha (840 h, 35DAA, Trial 1): 41% | Emax at 25 g/ha (840 h, 35DAA, Trial 1): 44% | Emax at 12.5 g/ha (960 h, 40DAA, Trial 1): 28% | Emax at 25 g/ha (960 h, 40DAA, Trial 1): 33%
